This assay concerns the target T1, KRAS G12C 1-169, his-tagged protein, GDP-loaded (Homo sapiens, UniProt P01116, G12C).
T1 construct: KRAS G12C 1-169, his-tagged protein, GDP-loaded; His tag
The assay can be described thus: Biochemical assay: covalent modification of KRAS G12C, analysed by mass spectrometry (RapidFire/TOF or Q-Exactive). Further: time not given here. The class given is binding. As to conditions: Modification activity, modification percentage from MS peak intensities. An outline of the steps: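 Covalent adduct formation was quantified by intact-protein mass spectrometry, either TOF or C4 LC-Q Exactive Plus, as percent modified versus unmodified protein after deconvolution. Compounds at 8 or 32 μM final were incubated with 0.5 or 2 μM GDP-bound KRAS G12C(1-169)-His in Hepes/NaCl/MgCl2 buffer before acid quench.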
On to `CC#CC(=O)N1CC2(CCN(c3nc(N4CCOCC4)nc(-c4c(C)ccc5[nH]ncc45)c3C#N)C2)C1` [Compound I-84, 4-(2-(but-2-ynoyl)-2,6-diazaspiro[3.4]octan-6-yl)-6-(5-methyl-1H-indazol-4-yl)-2-morpholinopyrimidine-5-carbonitrile], for which the Binding % result is “+ (+ indicates binding activity greater than 0% and up to 50%)”.
On to `Cc1ccc2[nH]ncc2c1-c1nc(N2CCOCC2)nc(N2CCC3(CN(C(=O)/C=C/CN(C)C)C3)C2)c1C#N` [Compound I-85, (E)-4-(2-(4-(dimethylamino)but-2-enoyl)-2,6-diazaspiro[3.4]octan-6-yl)-6-(5-methyl-1H-indazol-4-yl)-2-morpholinopyrimidine-5-carbonitrile], for which the Binding % entry is “+ (+ indicates binding activity greater than 0% and up to 50%)”.
For `C=CC(=O)N1CC2(CCN(c3nc(OCCCN(C)C)nc(-c4c(C)ccc5[nH]ncc45)c3C#N)CC2)C1` [Compound I-86, 4-(2-acryloyl-2,7-diazaspiro[3.5]nonan-7-yl)-2-(3-(dimethylamino)pro-poxy)-6-(5-methyl-1H-indazol-4-yl)pyrimidine-5-carbonitrile] the value was “++ (++ indicates binding activity from 50 to 85%)”; for `C=CC(=O)N1CC2(CCN(c3nc(OCCN4CC(F)(F)C4)nc(-c4c(C)ccc5[nH]ncc45)c3C#N)C2)C1` [Compound I-87, 4-(2-acryloyl-2,6-diazaspiro[3.4]octan-6-yl)-2-(2-(3,3-difluoroazetidin-1-yl)ethoxy)-6-(5-methyl-1H-indazol-4-yl)pyrimidine-5-carbonitrile], “++ (++ indicates binding activity from 50 to 85%)”.
`C=CC(=O)N1CC2(CCN(c3nc(N4CCOCC4)nc(N4CCCc5ccccc54)c3C#N)C2)C1` [Compound I-88, 4-(2-acryloyl-2,6-diazaspiro[3.4]octan-6-yl)-6-(3,4-dihydroquinolin-1(2H)-yl)-2-morpholinopyrimidine-5-carbonitrile]: the Binding % result was “+ (+ indicates binding activity greater than 0% and up to 50%)”.
Take `C=CC(=O)N1CC2(CCN(c3nc(N4CCOCC4)nc(N4CC(O)Cc5ccccc54)c3C#N)C2)C1` (centres unmarked) [Compound I-89, 4-(2-acryloyl-2,6-diazaspiro[3.4]octan-6-yl)-6-(3-hydroxy-3,4-dihydroquinolin-1(2H)-yl)-2-morpholinopyrimidine-5-carbonitrile]: the Binding % entry is “+ (+ indicates binding activity greater than 0% and up to 50%)”.
For `C=CC(=O)N1CC2(CCN(c3nc(OC[C@@H]4CCCN4C)nc(-c4n[nH]c5ccccc45)c3C#N)C2)C1` [Compound I-90, (S)-4-(2-acryloyl-2,6-diazaspiro[3.4]octan-6-yl)-6-(1H-indazol-3-yl)-2-((1-methylpyrrolidin-2-yl)methoxy)pyrimidine-5-carbonitrile] the value was “+ (+ indicates binding activity greater than 0% and up to 50%)”; for `C=CC(=O)N1CC2(CCN(c3nc(OC[C@@H]4CN(C)CCO4)nc(-c4c(C)ccc5[nH]ncc45)c3C#N)C2)C1` [Compound I-91, 4-(2-acryloyl-2,6-diazaspiro[3.4]octan-6-yl)-6-(5-methyl-1H-indazol-4-yl)-2-(((S)-4-methylmorpholin-2-yl)methoxy)pyrimidine-5-carbonitrile], “++ (++ indicates binding activity from 50 to 85%)”; for `C=CC(=O)N1CC2(CCN(c3nc(OC[C@@H]4CCCN4C)nc(-c4cc(O)cc5ccccc45)c3C#N)C2)C1` [Compound I-92, (S)-4-(2-acryloyl-2,6-diazaspiro[3.4]octan-6-yl)-6-(3-hydroxynaphthalen-1-yl)-2-((1-methylpyrrolidin-2-yl)methoxy)pyrimidine-5-carbonitrile], “++ (++ indicates binding activity from 50 to 85%)”.
The result for `C=CC(=O)N1CC2(CCN(c3nc(OCc4ccccn4)nc(-c4c(C)ccc5cn[nH]c45)c3C#N)C2)C1` [Compound I-93, 4-(2-acryloyl-2,6-diazaspiro[3.4]octan-6-yl)-6-(6-methyl-1H-indazol-7-yl)-2-(pyridin-2-ylmethoxy)pyrimidine-5-carbonitrile] reads “+++ (+++ indicates binding activity greater than 85%)”; that for `C=CC(=O)N1CC2(CCN(c3nc(OC[C@@H]4CCCN4C)nc(-c4cc(C(N)=O)ccc4F)c3C#N)C2)C1` [Compound I-94, (S)-3-(6-(2-acryloyl-2,6-diazaspiro[3.4]octan-6-yl)-5-cyano-2-((1-methylpyrrolidin-2-yl)methoxy)pyrimidin-4-yl)-4-fluorobenzamide], “+ (+ indicates binding activity greater than 0% and up to 50%)”.
Take `C=CC(=O)N1CC2(CCN(c3nc(N4CCOCC4)nc(-c4cccc5[nH]ncc45)c3C#N)C2)C1` [Compound I-95, 4-(2-acryloyl-2,6-diazaspiro[3.4]octan-6-yl)-6-(1H-indazol-4-yl)-2-morpholinopyrimidine-5-carbonitrile]: the Binding % entry is “+ (+ indicates binding activity greater than 0% and up to 50%)”.
The result for `C=CC(=O)N1CC2(CCN(c3nc(N4CCOCC4)nc(-c4c(C)ccc5[nH]nc(C)c45)c3C#N)C2)C1` [Compound I-96, 4-(2-acryloyl-2,6-diazaspiro[3.4]octan-6-yl)-6-(3,5-dimethyl-1H-indazol-4-yl)-2-morpholinopyrimidine-5-carbonitrile] reads “+++ (+++ indicates binding activity greater than 85%)”.
Regarding `C=CC(=O)N1CC2(CCN(c3nc(N4CCOCC4)nc(-c4c(C)ccc5cnn(C6CC6)c45)c3C#N)C2)C1` [Compound I-97, 4-(2-acryloyl-2,6-diazaspiro[3.4]octan-6-yl)-6-(1-cyclopropyl-6-methyl-1H-indazol-7-yl)-2-morpholinopyrimidine-5-carbonitrile], the Binding % result was “+ (+ indicates binding activity greater than 0% and up to 50%)”.
`C/C=C/C(=O)N1CC2(CCN(c3nc(OCc4ccccn4)nc(-c4c(C)ccc5[nH]ncc45)c3C#N)C2)C1` [Compound I-98, (E)-4-(2-(but-2-enoyl)-2,6-diazaspiro[3.4]octan-6-yl)-6-(5-methyl-1H-indazol-4-yl)-2-(pyridin-2-ylmethoxy)pyrimidine-5-carbonitrile]: the Binding % entry was “+ (+ indicates binding activity greater than 0% and up to 50%)”.
The result for `CC#CC(=O)N1CC2(CCN(c3nc(OCc4ccccn4)nc(-c4c(C)ccc5[nH]ncc45)c3C#N)C2)C1` [Compound I-99, 4-(2-(but-2-ynoyl)-2,6-diazaspiro[3.4]octan-6-yl)-6-(5-methyl-1H-indazol-4-yl)-2-(pyridin-2-ylmethoxy)pyrimidine-5-carbonitrile] reads “+ (+ indicates binding activity greater than 0% and up to 50%)”; that for `C=CC(=O)N1CC2(CCN(c3nc(N4CCOCC4)nc(-c4cccc5ccccc45)c3C#N)C2)C1` [Compound I-100, 4-(2-acryloyl-2,6-diazaspiro[3.4]octan-6-yl)-2-morpholino-6-(naphthalen-1-yl)pyrimidine-5-carbonitrile], “+ (+ indicates binding activity greater than 0% and up to 50%)”.
For `C=CC(=O)N1CC2(CCN(c3nc(OC[C@@H]4CCCN4C)nc(-c4cccc5ccccc45)c3C#N)C2)C1` [Compound I-101, (S)-4-(2-acryloyl-2,6-diazaspiro[3.4]octan-6-yl)-2-((1-methylpyrrolidin-2-yl)methoxy)-6-(naphthalen-1-yl)pyrimidine-5-carbonitrile] the value was “+ (+ indicates binding activity greater than 0% and up to 50%)”; for `C=CC(=O)N1CC2(CCN(c3nc(OCc4ccccn4)nc(-c4c(C)ccc5cnn(C)c45)c3C#N)C2)C1` [Compound I-102, 4-(2-acryloyl-2,6-diazaspiro[3.4]octan-6-yl)-6-(1,6-dimethyl-1H-indazol-7-yl)-2-(pyridin-2-ylmethoxy)pyrimidine-5-carbonitrile], “++ (++ indicates binding activity from 50 to 85%)”.
For `C=CC(=O)N1CC2(CCN(c3nc(OC[C@@H]4CCCN4C)nc(-c4c(C)ccc5cnn(C6CC6)c45)c3C#N)C2)C1` [Compound I-103, 4-(2-acryloyl-2,6-diazaspiro[3.4]octan-6-yl)-6-(1-cyclopropyl-6-methyl-1H-indazol-7-yl)-2-(((S)-1-methylpyrrolidin-2-yl)methoxy)pyrimidine-5-carbonitrile] the value was “+ (+ indicates binding activity greater than 0% and up to 50%)”; for `CC#CC(=O)N1CC2(CCN(c3nc(OC[C@@H]4CCCN4C)nc(-c4c(C)ccc5[nH]ncc45)c3C#N)C2)C1` [Compound I-104, 4-(2-(but-2-ynoyl)-2,6-diazaspiro[3.4]octan-6-yl)-6-(5-methyl-1H-indazol-4-yl)-2-(((S)-1-methylpyrrolidin-2-yl)methoxy)pyrimidine-5-carbontrile], “+ (+ indicates binding activity greater than 0% and up to 50%)”; for `C/C=C/C(=O)N1CC2(CCN(c3nc(OC[C@@H]4CCCN4C)nc(-c4c(C)ccc5[nH]ncc45)c3C#N)C2)C1` [Compound I-105, 4-(2-((E)-but-2-enoyl)-2,6-diazaspiro[3.4]octan-6-yl)-6-(5-methyl-1H-indazol-4-yl)-2-(((S)-1-methylpyrrolidin-2-yl)methoxy)pyrimidine-5-carbonitrile], “+ (+ indicates binding activity greater than 0% and up to 50%)”.
As for `C=CC(=O)N1CC2(CCN(c3nc(OCc4ccccn4)nc(-c4c(C)ccc5cnn(C6CC6)c45)c3C#N)C2)C1` [Compound I-106, 4-(2-acryloyl-2,6-diazaspiro[3.4]octan-6-yl)-6-(1-cyclopropyl-6-methyl-1H-indazol-7-yl)-2-(pyridin-2-ylmethoxy)pyrimidine-5-carbontrile], the Binding % entry was “+ (+ indicates binding activity greater than 0% and up to 50%)”.

Source of the values: US12134620B2 (ARAXES PHARMA LLC, priority 2018, dated 2024).
